Patent US4288609A, “Quaternary ammonium derivatives of adamantane with antimicrobic activity” (priority 1976, dated 1981)
Read-outs that look alike come from different tables or passages of the source.

Tests used:
Staph.Aureus Tour = test: M.I.C. in vitro, gram+ Staph. Aureus (Table 1); format: cell-based, Staphylococcus Aureus; conditions: Staphylococcus aureus, read-out: M.I.C.
Method: (§1) The method for evaluating the activity in vitro against bacteria, fungi and protozoa consists in introducing calculated quantities of the substance, the activity of which it is desired to test, into culture media already inoculated with a predetermined number of test germs.
(§2) After 24 or 48 hours of incubation at 30° or 37° C., according to the micro-organism being tested, it is possible to evaluate the growth of the same in the culture broth; in this manner the minimum concentration (M.I.C.) which inhibits the growth of the micro-organisms in vitro is determined.
(§3) In table 1 there are recorded the M.I.C. values in γ/ml of the products subject of the present invention, against certain gram+ and gram- bacterial strains, some of which are pathogenic towards human beings.

Proteus Vulc. ATCC 881 = test: M.I.C. in vitro, gram- Proteus Vulc. (Table 1); format: cell-based; conditions: read-out: M.I.C.
Method: as §1, §2, §3

Esch. Coli. SKF 12140 = test: M.I.C. in vitro, gram- Esch. Coli (Table 1); format: cell-based, Escherichia Coli; conditions: Escherichia coli, read-out: M.I.C.
Method: as §1, §2, §3

[1] = tested on: Nicrosporum Canis ATCC 11621; test: MIC mildews, Microsporum canis (Table 2); format: cell-based; conditions: Microsporum canis, Sabourand broth, read-out: MIC
Method: as §1, §2
(§4) Inoculation with Trichophyton mentagrophytes and Microsporum canis was effected in a ratio of 1% of the volume of medium used.
(§5) For the fungi Sabourand broth was used as a culture medium, whilst for the protozoa Kupferberg Trichomonas broth with 5% of horse serum was used.

Pseudom.Aer. ATCC 1014 = test: M.I.C. in vitro, gram- Pseudom. Aer. (Table 1); format: cell-based, Pseudomonas Aeruginosa; conditions: Pseudomonas aeruginosa, read-out: M.I.C.
Method: as §1, §2, §3

[2] = tested on: Trych. Mentagr. 1st.Pastuer; test: MIC mildews, Trichophyton mentagrophytes (Table 2); format: cell-based; conditions: Trichophyton mentagrophytes, Sabourand broth, read-out: MIC
Method: as §1, §2, §4, §5

[3] = tested on: Trich. Vaginalis ISM 66/22; test: MIC protozoa, Trichomonas vaginalis (Table 2); format: cell-based; conditions: Trichomonas vaginalis, +10% serum (head); Kupferberg Trichomonas broth with 5% of horse serum; read-out: MIC
Method: as §1, §2
(§6) Inoculation with Trichomonas vaginalis and Trichomonas foetus, obtained from cultures transplanted every other day to make them lively, was effected in a ratio of 3.5% of the volume of medium used.
as §5

Diplococcus Pneum. ISM = test: M.I.C. in vitro, gram+ Diplococcus Pneum. (Table 1); format: cell-based; conditions: read-out: M.I.C.
Method: as §1, §2, §3

[4] = Acute oral toxicity in mice (Table 4); conditions: mouse, in vivo, po, LD50, oral, mice, 14 days
Method: The substances were administered orally to groups of 10 female mice CF1 of average weight of about 20 grams, in aqueous solution and in such way that the total volume administered would be in each case 1 ml/100 g of weight.

[5] = tested on: Streptococ. Henclyt. 0203; test: M.I.C. in vitro, gram+ Streptococ. Henclyt. (Table 1); format: cell-based; conditions: read-out: M.I.C.
Method: as §1, §2, §3

Klens. Pneum. ISM = test: M.I.C. in vitro, gram- Klens. Pneum. (Table 1); format: cell-based; conditions: read-out: M.I.C.
Method: as §1, §2, §3

Trich. Foetus ISM 66/23 = test: MIC protozoa, Trichomonas foetus (Table 2); format: cell-based; conditions: Tritrichomonas foetus, +10% serum (head); Kupferberg Trichomonas broth with 5% of horse serum; read-out: MIC
Method: as §1, §2, §6, §5

[6] = tested on: Candida Pseudotrop. ATCC 2512; test: MIC yeasts, Candida pseudotropicalis (Table 2); format: cell-based; conditions: Candida, Sabourand broth, read-out: MIC
Method: as §1, §2
(§7) Inoculation with Candida albicans or Candida pseudotropicalis was made by diluting cultures grown for 24 h at 30° C. (cellular density inoculated 10^3 /ml).
as §5

Candida Albic. SKF 2270 = test: MIC yeasts, Candida albicans (Table 2); format: cell-based; conditions: Candida, Sabourand broth, read-out: MIC
Method: as §1, §2, §7, §5

For CCCCCCCCCCC[N+](CC)(CC)CCNC(=O)C12CC3CC(CC(C3)C1)C2 [Example 11, n-Undecyl-diethyl-(1-adamantane-carbonylamido)-ethylammonium bromide], the MIC (Staph.Aureus Tour; +10% serum) was 10 µg/mL, the MIC (Staph.Aureus Tour; without serum) was < 0.1 µg/mL and the MIC (Proteus Vulc. ATCC 881; +10% serum) was 100 µg/mL. The MIC (Proteus Vulc. ATCC 881; without serum) was 10 µg/mL, the MIC (Esch. Coli. SKF 12140; +10% serum) was 100 µg/mL and the MIC (Esch. Coli. SKF 12140; without serum) was 5 µg/mL. It also gave an MIC ([1]; ATCC11621, +10% serum) of 20 µg/mL, an MIC ([1]; ATCC11621, without serum) of 0.2 µg/mL and an MIC (Pseudom.Aer. ATCC 1014; ATCC1014, +10% serum) of 100 µg/mL. For the same compound, the MIC (Pseudom.Aer. ATCC 1014; ATCC1014, without serum) was 20 µg/mL, the MIC ([2]; +10% serum) was 10 µg/mL and the MIC ([2]; without serum) was 0.1 µg/mL. For the same compound, the MIC [3] was 5 µg/mL, the MIC (Diplococcus Pneum. ISM; +10% serum) was 5 µg/mL and the MIC (Diplococcus Pneum. ISM; without serum) was 1 µg/mL. The LD50 at 336 h [4] was 935 mg/kg, the MIC ([5]; +10% serum) was 2 µg/mL and the MIC ([5]; without serum) was < 0.1 µg/mL. The MIC (Klens. Pneum. ISM; +10% serum) was 100 µg/mL, the MIC (Klens. Pneum. ISM; without serum) was 5 µg/mL and the MIC (Trich. Foetus ISM 66/23) was 5 µg/mL. For the same compound, the MIC ([6]; ATCC2512, +10% serum) was 20 µg/mL, the MIC ([6]; ATCC2512, without serum) was < 0.1 µg/mL and the MIC (Candida Albic. SKF 2270; +10% serum) was 20 µg/mL. The MIC (Candida Albic. SKF 2270; without serum) was 1 µg/mL.

With CCCCCCCCCC[N+](C)(C)CCNC(=O)C12CC3CC(CC(C3)C1)C2 [Example 7] the MIC (Staph.Aureus Tour; +10% serum) was 5 µg/mL, the MIC (Staph.Aureus Tour; without serum) was 0.2 µg/mL and the MIC (Proteus Vulc. ATCC 881; +10% serum) was 100 µg/mL. It also gave an MIC (Proteus Vulc. ATCC 881; without serum) of 10 µg/mL, an MIC (Esch. Coli. SKF 12140; +10% serum) of 100 µg/mL and an MIC (Esch. Coli. SKF 12140; without serum) of 10 µg/mL. It also gave an MIC ([1]; ATCC11621, +10% serum) of 20 µg/mL, an MIC ([1]; ATCC11621, without serum) of 0.5 µg/mL and an MIC (Pseudom.Aer. ATCC 1014; ATCC1014, +10% serum) of 100 µg/mL. For the same compound, the MIC (Pseudom.Aer. ATCC 1014; ATCC1014, without serum) was 50 µg/mL, the MIC ([2]; +10% serum) was 20 µg/mL and the MIC ([2]; without serum) was 0.5 µg/mL. For the same compound, the MIC [3] was 5 µg/mL, the MIC (Diplococcus Pneum. ISM; +10% serum) was 10 µg/mL and the MIC (Diplococcus Pneum. ISM; without serum) was 0.5 µg/mL. The LD50 at 336 h [4] was 955 mg/kg, the MIC ([5]; +10% serum) was 2 µg/mL and the MIC ([5]; without serum) was 0.2 µg/mL. For the same compound, the MIC (Klens. Pneum. ISM; +10% serum) was 50 µg/mL, the MIC (Klens. Pneum. ISM; without serum) was 10 µg/mL and the MIC (Trich. Foetus ISM 66/23) was 2 µg/mL. For the same compound, the MIC ([6]; ATCC2512, +10% serum) was 50 µg/mL, the MIC ([6]; ATCC2512, without serum) was 0.2 µg/mL and the MIC (Candida Albic. SKF 2270; +10% serum) was 50 µg/mL. For the same compound, the MIC (Candida Albic. SKF 2270; without serum) was 5 µg/mL.

For CCCCCCCCCCCC[N+](CC)(CC)CCOC(=O)C12CC3CC(CC(C3)C1)C2 [Example 6, n-Dodecyl-diethyl-(1-adamantane-carboxy)-ethyl-ammonium bromide], the MIC (Staph.Aureus Tour; +10% serum) was 10 µg/mL, the MIC (Staph.Aureus Tour; without serum) was 0.1 µg/mL and the MIC (Proteus Vulc. ATCC 881; +10% serum) was 100 µg/mL. It also gave an MIC (Proteus Vulc. ATCC 881; without serum) of 20 µg/mL, an MIC (Esch. Coli. SKF 12140; +10% serum) of 100 µg/mL and an MIC (Esch. Coli. SKF 12140; without serum) of 10 µg/mL. It also gave an MIC ([1]; ATCC11621, +10% serum) of 50 µg/mL, an MIC ([1]; ATCC11621, without serum) of 0.5 µg/mL and an MIC (Pseudom.Aer. ATCC 1014; ATCC1014, +10% serum) of 100 µg/mL. It also gave an MIC (Pseudom.Aer. ATCC 1014; ATCC1014, without serum) of 50 µg/mL, an MIC ([2]; +10% serum) of 20 µg/mL and an MIC ([2]; without serum) of 0.5 µg/mL. For the same compound, the MIC [3] was 10 µg/mL, the MIC (Diplococcus Pneum. ISM; +10% serum) was 5 µg/mL and the MIC (Diplococcus Pneum. ISM; without serum) was 2 µg/mL. The LD50 at 336 h [4] was 935 mg/kg, the MIC ([5]; +10% serum) was 2 µg/mL and the MIC ([5]; without serum) was 0.5 µg/mL. It also gave an MIC (Klens. Pneum. ISM; +10% serum) of 100 µg/mL, an MIC (Klens. Pneum. ISM; without serum) of 10 µg/mL and an MIC (Trich. Foetus ISM 66/23) of 5 µg/mL. For the same compound, the MIC ([6]; ATCC2512, +10% serum) was 50 µg/mL, the MIC ([6]; ATCC2512, without serum) was 0.5 µg/mL and the MIC (Candida Albic. SKF 2270; +10% serum) was 50 µg/mL. For the same compound, the MIC (Candida Albic. SKF 2270; without serum) was 2 µg/mL.

With CCCCCCCCCCC[N+](C)(C)CCOC(=O)C12CC3CC(CC(C3)C1)C2 [Example 3] the MIC (Staph.Aureus Tour; +10% serum) was 5 µg/mL, the MIC (Staph.Aureus Tour; without serum) was < 0.1 µg/mL and the MIC (Proteus Vulc. ATCC 881; +10% serum) was 100 µg/mL. It also gave an MIC (Proteus Vulc. ATCC 881; without serum) of 5 µg/mL, an MIC (Esch. Coli. SKF 12140; +10% serum) of 100 µg/mL and an MIC (Esch. Coli. SKF 12140; without serum) of 2 µg/mL. The MIC ([1]; ATCC11621, +10% serum) was 10 µg/mL, the MIC ([1]; ATCC11621, without serum) was < 0.1 µg/mL and the MIC (Pseudom.Aer. ATCC 1014; ATCC1014, +10% serum) was 100 µg/mL. The MIC (Pseudom.Aer. ATCC 1014; ATCC1014, without serum) was 20 µg/mL, the MIC ([2]; +10% serum) was 10 µg/mL and the MIC ([2]; without serum) was 0.1 µg/mL. For the same compound, the MIC [3] was 5 µg/mL, the MIC (Diplococcus Pneum. ISM; +10% serum) was 5 µg/mL and the MIC (Diplococcus Pneum. ISM; without serum) was 0.5 µg/mL. The LD50 at 336 h [4] was 745 mg/kg, the MIC ([5]; +10% serum) was 9.2 µg/mL and the MIC ([5]; without serum) was < 0.1 µg/mL. The MIC (Klens. Pneum. ISM; +10% serum) was 100 µg/mL, the MIC (Klens. Pneum. ISM; without serum) was 5 µg/mL and the MIC (Trich. Foetus ISM 66/23) was 5 µg/mL. The MIC ([6]; ATCC2512, +10% serum) was 50 µg/mL, the MIC ([6]; ATCC2512, without serum) was < 0.1 µg/mL and the MIC (Candida Albic. SKF 2270; +10% serum) was 20 µg/mL. It also gave an MIC (Candida Albic. SKF 2270; without serum) of 0.5 µg/mL.
